Test results: US20240368113A1, “AMIDE COMPOUND AND USE THEREOF” (Chengdu Fendi Pharmaceutical Co. Ltd., priority 2021, published 2024)

tested on: MV-4-11 cells; experiment: Inhibition of tumor cell proliferation (CellTiter-Glo); type: cell-based; conditions: Homo sapiens, MV4-11, 72 h, read-out: IC50 of inhibitory activity of tumor cell proliferation
Description: MV-4-11 cells were diluted with medium (RPM1640+10% FBS+1% PS) and plated at 4000 cells/well in a white-walled clear-bottom 96-well plate. MV-4-11 cells were plated and incubated in a 5% CO2, 37° C. incubator for 2 hours. Cells were treated with the indicated concentration of compound or DMSO (control), and placed in a 5% CO2, 37° C. incubator for 72 h after dosing. After the end of the culture, equilibrate at room temperature for 30 min, add 100 μl of CellTiter-Glo® Reagent to each well, and shake the microplate shaker for 2 min. After 10 min of incubation at room temperature, the luminescence was measured by a microplate reader, and the cell-free wells were used as the background wells. CC-90009 (celegen patent phase I) was used as a control, and its structural formula was as follows: 0

Compound	IC50 [nM]
COP(=O)(OC)Oc1ccc(C#CC(=O)NCc2ccc3c(c2)CN(C2CCC(=O)NC2=O)C3=O)cc1 (stereo not drawn) [Compound 80]	10 to 100
O=C(C#Cc1ccc(OP(=O)(Oc2ccccc2)Oc2ccccc2)cc1)NCc1ccc2c(c1)CN(C1CCC(=O)NC1=O)C2=O (stereo not drawn) [Compound 81]	< 1
CC1(C)COP(=O)(Oc2ccc(C#CC(=O)NCc3ccc4c(c3)CN(C3CCC(=O)NC3=O)C4=O)cc2)OC1 (stereo not drawn) [Compound 82]	10 to 100
CC1(C)COP(=O)(Oc2ccccc2C#CC(=O)NCc2ccc3c(c2)CN(C2CCC(=O)NC2=O)C3=O)OC1 (stereo not drawn) [Compound 97]	1 to 10

same assay, conditions: Homo sapiens, MV4-11; MV-4-11 cells, 72 h, CellTiter-Glo; read-out: IC50 of inhibitory activity of tumor cell proliferation

Compound	IC50 [nM]
CC(C)(C)C(=O)OCOC(=O)c1cccc(C#CC(=O)NCc2ccc3c(c2)CN(C2CCC(=O)NC2=O)C3=O)c1 (stereo not drawn) [Compound 78]	> 100
O=C(C#Cc1cc(O)ccc1Cl)NCc1ccc2c(c1)CN(C1CCC(=O)NC1=O)C2=O (stereo not drawn) [Compound 79]	1 to 10
Nc1cccc(C#CC(=O)NCc2ccc3c(c2)CN(C2CCC(=O)NC2=O)C3=O)c1 (stereo not drawn) [Compound 84]	1 to 10
O=C(C#CC1CCCCN1C(=O)C(F)(F)F)NCc1ccc2c(c1)CN(C1CCC(=O)NC1=O)C2=O (stereo not drawn) [Compound 85]	10 to 100
O=C(O)CCC(=O)Oc1ccc(C#CC(=O)NCc2ccc3c(c2)CN(C2CCC(=O)NC2=O)C3=O)cc1 (stereo not drawn) [Compound 86]	10 to 100
CC(C)(C)OC(=O)CCC(=O)Oc1ccc(C#CC(=O)NCc2ccc3c(c2)CN(C2CCC(=O)NC2=O)C3=O)cc1 (stereo not drawn) [Compound 87]	10 to 100
O=C(O)CCC(=O)Oc1ccccc1C#CC(=O)NCc1ccc2c(c1)CN(C1CCC(=O)NC1=O)C2=O (stereo not drawn) [Compound 88]	1 to 10
CC(C)(C)OC(=O)CCC(=O)Oc1ccccc1C#CC(=O)NCc1ccc2c(c1)CN(C1CCC(=O)NC1=O)C2=O (stereo not drawn) [Compound 89]	1 to 10
O=C(C#Cc1ccc(Cl)cc1C(=O)O)NCc1ccc2c(c1)CN(C1CCC(=O)NC1=O)C2=O (stereo not drawn) [Compound 90]	> 100
O=C(C#Cc1cc(C(=O)O)c(F)cc1F)NCc1ccc2c(c1)CN(C1CCC(=O)NC1=O)C2=O (stereo not drawn) [Compound 91]	1 to 10
Cc1c(C#CC(=O)NCc2ccc3c(c2)CN(C2CCC(=O)NC2=O)C3=O)cccc1C(=O)O (stereo not drawn) [Compound 92]	> 100
CCCC(=O)OCOC(=O)c1ccccc1C#CC(=O)NCc1ccc2c(c1)CN(C1CCC(=O)NC1=O)C2=O (stereo not drawn) [Compound 94]	> 100
CCCC(=O)OCOC(=O)c1cccc(C#CC(=O)NCc2ccc3c(c2)CN(C2CCC(=O)NC2=O)C3=O)c1 (stereo not drawn) [Compound 95]	> 100
CC(=O)OCOC(=O)c1ccccc1C#CC(=O)NCc1ccc2c(c1)CN(C1CCC(=O)NC1=O)C2=O (stereo not drawn) [Compound 96]	> 100
O=C(C#Cc1cc2ccccc2o1)NCc1ccc2c(c1)CN(C1CCC(=O)NC1=O)C2=O (stereo not drawn) [Compound 98]	1 to 10
O=C(C#Cc1coc2ccccc12)NCc1ccc2c(c1)CN(C1CCC(=O)NC1=O)C2=O (stereo not drawn) [Compound 99]	< 1
O=C(C#Cc1cc(Cl)c(O)c(Cl)c1)NCc1ccc2c(c1)CN(C1CCC(=O)NC1=O)C2=O (stereo not drawn) [Compound 100]	> 100
O=C(C#Cc1ccc(O)c(Cl)c1)NCc1ccc2c(c1)CN(C1CCC(=O)NC1=O)C2=O (stereo not drawn) [Compound 101]	10 to 100
O=C(C#Cc1ccc2occc2c1)NCc1ccc2c(c1)CN(C1CCC(=O)NC1=O)C2=O (stereo not drawn) [Compound 102]	< 1
O=C(C#Cc1ccc(C(=O)O)cc1Cl)NCc1ccc2c(c1)CN(C1CCC(=O)NC1=O)C2=O (stereo not drawn) [Compound 103]	10 to 100
O=C(C#Cc1ccc(Cl)c(C(=O)O)c1)NCc1ccc2c(c1)CN(C1CCC(=O)NC1=O)C2=O (stereo not drawn) [Compound 104]	< 1
Cc1cc(O)cc(C)c1C#CC(=O)NCc1ccc2c(c1)CN(C1CCC(=O)NC1=O)C2=O (stereo not drawn) [Compound 105]	1 to 10
O=C(C#Cc1nc2ccccc2s1)NCc1ccc2c(c1)CN(C1CCC(=O)NC1=O)C2=O (stereo not drawn) [Compound 106]	10 to 100

Further lines, results first:

IC50 [nM]	Compound
10 to 100	O=C(C#Cc1ccc2[nH]ncc2c1)NCc1ccc2c(c1)CN(C1CCC(=O)NC1=O)C2=O (stereo not drawn) [Compound 107]
1 to 10	O=C(C#Cc1ccc2[nH]ccc2c1)NCc1ccc2c(c1)CN(C1CCC(=O)NC1=O)C2=O (stereo not drawn) [Compound 108]
1 to 10	O=C(C#Cc1ccc(O)cc1Cl)NCc1ccc2c(c1)CN(C1CCC(=O)NC1=O)C2=O (stereo not drawn) [Compound 109]
1 to 10	O=C(C#Cc1cc2ccccc2[nH]1)NCc1ccc2c(c1)CN(C1CCC(=O)NC1=O)C2=O (stereo not drawn) [Compound 110]
1 to 10	O=C(C#CC1CCCC1)NCc1ccc2c(c1)CN(C1CCC(=O)NC1=O)C2=O (stereo not drawn) [Compound 111]
1 to 10	Cc1cc(O)ccc1C#CC(=O)NCc1ccc2c(c1)CN(C1CCC(=O)NC1=O)C2=O (stereo not drawn) [Compound 112]
< 1	Cc1cccc(C#CC(=O)NCc2ccc3c(c2)CN(C2CCC(=O)NC2=O)C3=O)c1O (stereo not drawn) [Compound 113]
1 to 10	Cc1c(O)cccc1C#CC(=O)NCc1ccc2c(c1)CN(C1CCC(=O)NC1=O)C2=O (stereo not drawn) [Compound 114]
> 100	O=C(C#CC(O)c1ccccc1)NCc1ccc2c(c1)CN(C1CCC(=O)NC1=O)C2=O (stereo not drawn) [Compound 115]
1 to 10	CC(=O)c1ccccc1C#CC(=O)NCc1ccc2c(c1)CN(C1CCC(=O)NC1=O)C2=O (stereo not drawn) [Compound 116]
< 1	CC(=O)c1cccc(C#CC(=O)NCc2ccc3c(c2)CN(C2CCC(=O)NC2=O)C3=O)c1 (stereo not drawn) [Compound 117]
1 to 10	CC(=O)c1ccc(C#CC(=O)NCc2ccc3c(c2)CN(C2CCC(=O)NC2=O)C3=O)cc1 (stereo not drawn) [Compound 118]
> 100	CC1=C(C(=O)NCc2ccc3c(c2)CN(C2CCC(=O)NC2=O)C3=O)C(=O)c2ccccc21 (stereo not drawn) [Compound 119]
1 to 10	O=C(C#Cc1ccc2ncsc2c1)NCc1ccc2c(c1)CN(C1CCC(=O)NC1=O)C2=O (stereo not drawn) [Compound 120]
< 1	O=C(C#Cc1ccc2scnc2c1)NCc1ccc2c(c1)CN(C1CCC(=O)NC1=O)C2=O (stereo not drawn) [Compound 121]
10 to 100	O=C(C#Cc1ccc2ncoc2c1)NCc1ccc2c(c1)CN(C1CCC(=O)NC1=O)C2=O (stereo not drawn) [Compound 122]
< 1	O=C(C#Cc1ccc2ocnc2c1)NCc1ccc2c(c1)CN(C1CCC(=O)NC1=O)C2=O (stereo not drawn) [Compound 123]
10 to 100	Nc1ccc(C#CC(=O)NCc2ccc3c(c2)CN(C2CCC(=O)NC2=O)C3=O)cc1 (stereo not drawn) [Compound 124]
> 100	O=C(C#CCN1CCCC1)NCc1ccc2c(c1)CN(C1CCC(=O)NC1=O)C2=O (stereo not drawn) [Compound 125]
> 100	O=C(C#CN1CCCC1)NCc1ccc2c(c1)CN(C1CCC(=O)NC1=O)C2=O (stereo not drawn) [Compound 126]
> 100	O=C(C#Cc1ccc2ncncc2c1)NCc1ccc2c(c1)CN(C1CCC(=O)NC1=O)C2=O (stereo not drawn) [Compound 127]
10 to 100	O=C(C#Cc1ccc2nc[nH]c(=O)c2c1)NCc1ccc2c(c1)CN(C1CCC(=O)NC1=O)C2=O (stereo not drawn) [Compound 128]
10 to 100	O=C(C#Cc1cc2cn[nH]c2cc1F)NCc1ccc2c(c1)CN(C1CCC(=O)NC1=O)C2=O (stereo not drawn) [Compound 129]
1 to 10	O=C(C#Cc1ccc2[nH]ncc2c1F)NCc1ccc2c(c1)CN(C1CCC(=O)NC1=O)C2=O (stereo not drawn) [Compound 130]
1 to 10	Cn1cnc2cc(C#CC(=O)NCc3ccc4c(c3)CN(C3CCC(=O)NC3=O)C4=O)ccc21 (stereo not drawn) [Compound 131]
10 to 100	Cn1cnc2ccc(C#CC(=O)NCc3ccc4c(c3)CN(C3CCC(=O)NC3=O)C4=O)cc21 (stereo not drawn) [Compound 132]
1 to 10	Cn1cnc2c(C#CC(=O)NCc3ccc4c(c3)CN(C3CCC(=O)NC3=O)C4=O)cccc21 (stereo not drawn) [Compound 133]
